Values joined by “and” are separate entries in the source; they are usually repeats but may differ in a detail not shown here. Identical values can stand only once. Non-standard residues stand in square brackets, D forms with d. Residues, ends and D or L forms follow the SMILES beside them. Hyp = O=C(O)[C@@H]1C[C@@H](O)CN1
Tests used:
Bradykinin receptor = biological target: T1, Bradykinin receptor (Mus musculus, UniProt P32299); assay: Cell culture method: inhibition of bradykinin-induced increase in cytosolic free calcium in fura-2 loaded NG108-15 cells; type: cell-based; settings: for agonist / antagonist activity in this assay: result in words
T1 construct: suspensions of cultured NG108-15 cells loaded with the Ca²⁺-sensitive fluorescent indicator fura-2; endogenous in cells; host or cells: NG108-15 cells (University of California at San Francisco, Cell Culture Facility)
T1 sequence (P32299 1-392): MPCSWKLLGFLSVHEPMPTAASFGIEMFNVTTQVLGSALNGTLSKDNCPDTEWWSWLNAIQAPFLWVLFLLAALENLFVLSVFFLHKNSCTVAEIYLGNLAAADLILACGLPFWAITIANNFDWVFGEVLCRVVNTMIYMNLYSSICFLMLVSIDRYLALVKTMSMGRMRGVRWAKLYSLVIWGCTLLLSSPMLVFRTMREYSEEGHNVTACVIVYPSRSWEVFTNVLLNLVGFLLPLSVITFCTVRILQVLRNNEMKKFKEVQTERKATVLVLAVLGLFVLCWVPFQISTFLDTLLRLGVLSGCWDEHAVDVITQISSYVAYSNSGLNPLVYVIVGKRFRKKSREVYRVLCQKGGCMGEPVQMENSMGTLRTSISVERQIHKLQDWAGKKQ
Description: In many different tissues and isolated cell populations, bradykinin induces a receptor mediated rise in the concentration of cytosolic free calcium ([Ca²⁺]i). In cultured NG108-15 neuronal cells (University of California at San Francisco, Cell Culture Facility, San Francisco, California), bradykinin increases [Ca²⁺]i in a dose dependent manner from a basal concentration of about 260 nM to approximately 1000 nM at a maximally effective concentration of bradykinin (1 X 10⁻⁶M). The half maximally effective concentration (EC₅₀) of bradykinin is 3 X 10⁻⁹M. Bradykinin receptor antagonist potency is evaluated by determining the concentration of antagonist required to inhibit by 50% (IC₅₀) the increase in [Ca²⁺]i induced by 1 X 10⁻⁹M bradykinin (Bachem, Torrance, CA). NG108-15 cells are cultured in […] Corning flasks (Fisher Scientific, Cincinnati, OH) in Dulbecco's modified minimal essential medium (high glucose; Gibco, Grand Island, NY) containing 5% fetal bovine serum (Hyclone, Logan, UT) and HAT (hypoxanthine-aminopterin-thymidine, Sigma, St. Louis, MO). The concentration of cytosolic free Ca²⁺ ([Ca²⁺]i) is measured in suspensions of cultured NG108-15 cells loaded with the Ca²⁺-sensitive fluorescent indicator fura-2 essentially as described by Osugi et al. (Journal Pharmacol. Exp. Ther., Vol. 240, (1987), pp. 617-622). Flasks of confluent cells are incubated for 60 minutes at 37°C in 20 mls of HEPES-buffered saline [140 mM NaCl, 5.4 mM KCl, 0.8 mM MgSO₄, 1.0 mM CaCl₂, 20 mM HEPES (N-2-. hydroxyethylpiperazine-N′-2-ethanesulfonic acid; Behring Diagnostics, LaJolla, CA), 10 mM glucose, 0.25% bovine serum albumin (Cat. #A-4503; Sigma Chemical Co., St. Louis, MO)] containing fura-2 acetoxymethyl ester (Molecular Probes, Inc., Eugene, OR) at a final concentration of 2 µM. The flasks are then washed twice with 30 mls of HEPES-buffered saline and the cells detached from the flasks in 15 mls of HEPES-buffered saline. The cell suspension is centrifuged at 25°C for 5 minutes at 350 x g and the cell pellet resuspended to a final volume of approximately 10 ml of HEPES-buffered saline/flask. The cell suspension is maintained at room temperature prior to use. The fluorescence of the fura-2 loaded NG108-15 cells is measured at an excitation wavelength of 340 nm (10 nM slit) and an emission wavelength of 500 nm (10 nM slit) in a Perkin-Elmer LS-5 fluorescence spectrophotometer fitted with a magnetic stirrer and a thermostatted cell holder. An aliquot of the cell suspension (1.37 ml) is placed in a cylindrical glass cuvette (internal diameter of 8 mm) containing a teflon coated stir bar and warmed to 37°C in a water bath. After 5 minutes, the cuvette is placed in the cell holder of the fluorometer and stirring is initiated just prior to the addition of a test sample. Routinely, a test sample (0.014 ml of a 100-fold concentration solution) is added to the cuvette 30 seconds prior to the addition of 1 X 10⁻⁹ M bradykinin. Fluorescence is recorded continuously during the addition of the test sample and bradykinin. Following completion of the fluorescence measurements, the cells are lysed with Triton X-100 at a final concentration of 10% (v/v) and the fluorescence of the Ca²⁺ saturated fura-2 (Fmax; fluorescence in the presence of 1 mM Ca²⁺) and the Mn²⁺-quenched fura-2 (autofluorescence (AF); fluorescence in the presence of 2 mM Mn²⁺) determined. […]

guinea pig ileum = assay: Guinea pig ileum assay (muscle contraction); settings: negative log of the dose causing half maximal contraction
Description: The bradykinin antagonists are assayed on guinea pig ileum for inhibition of the muscle-contracting activity of bradykinin, according to the commonly accepted assay method for bradykinin and related kinins as described in Stewart, J.M., "Chemistry and Biological Activity of Peptides Related to Bradykinin", Chapter V of Bradykinin, Kallidin and Kallikrein, (Handbook of Expt. Pharmacol.), E. G. Erdoes (ed.), Vol 25, Springer Verlag (pub.), 1970, pp. 242-243. The inhibition potencies are determined on isolated guinea pig ileum, according to the commonly accepted manner described for antagonists of biologically active compounds in Schild, H.O., "pA, a New Scale for the Measurement of Drug Antagonism", Br. J. Pharmacol., Vol. 2, No. 3 (1947), pp. 189-206). In the assay, a dose-response curve is determined for the reference substance bradykinin. The dose of bradykinin which produces a half maximal contraction of tissue is the ED₅₀ dose. An amount of bradykinin equivalent to twice the ED₅₀ dose is administered to the tissue 30 seconds after the start of incubation of the tissue with a dose of antagonist. Doses of antagonist are increased in this protocol until pre-incubation with a dose of antagonist reduces the contraction in response to the double ED₅₀ dose of bradykinin to response of a single ED₅₀ dose of bradykinin. […]

Male CF-1 mice = assay: Mouse abdominal constriction test (phenylquinone-induced writhing); type: in vivo; settings: for Change from Control (%): I.P.; for bradykinin agonist / antagonist activity in the assay: result in words, mouse abdominal constriction assay
Description: Compounds of the present invention are tested for analgesic activity using the mouse abdominal constriction assay. This assay is described in Hendershot, L.C., & J. Forsaith, "Antagonism of the Frequency of Phenylquinone-induced Writhing in the Mouse by Weak Analgesics and Nonanalgesics", J. Pharmacol., Vol. 125, (1959), pp. 237-240, and in Methods in Narcotics Research, S. Ehrenpreis and A. Neidle, (eds.), Marcel Dekker, Inc., New York (pub.), 1975, pp. 64-65, the disclosures of both these references being incorporated herein in their entirety by reference.
Male CF-1 mice (Charles River Breeding Laboratories, Inc.), weighing approximately 20 grams and food fasted overnight, are used in these assays. Test compounds are prepared for intraperitoneal (i.p.) injection, with compounds of the present invention being prepared in distilled deionized water so that the appropriate dose is given in 0.2 mls to a 20 gram mouse.
An i.p. injection of 0.02% phenylquinone (2.5 mg/kg) is given at a concentration of 0.25 ml/20 grams body weight. Five minutes later the mice receive an i.p. injection of test compound. Five minutes after the i.p. injection of test compound, the number of full body writhes are counted for the succeeding ten minutes. Percent analgesia in this assay is calculated as follows: [formula]
The mouse abdominal constriction assay was used to measure the antagonist activity of peptides of the present invention and related peptides as shown in Table 2: Table 2

| Molecule | agonist / antagonist activity in this assay (Bradykinin receptor) | Change from Control (%) (Male CF-1 mice; Dose 50 mg/kg) | bradykinin agonist / antagonist activity in the assay (Male CF-1 mice) | further results |
| --- | --- | --- | --- | --- |
| H-DArg-Arg-Pro-Hyp-Gly-Phe-Ser-DPhe-Phe-Arg-OH [Compound 5] | small amount of agonist activity |  |  | agonist activity (Bradykinin receptor; printed beside the IC₅₀): 10% |
| bradykinin (RPPGFSPFR; Bradykinin; UniProt P01042 381-389, looked up) [naturally occurring agonist nonapeptide] |  |  |  | pD2 value (guinea pig ileum): 7.4; [Ca²⁺]i at maximally effective concentration (Bradykinin receptor; 1 X 10⁻⁶M bradykinin, basal concentration about 260 nM): approximately 1000 nM |
| N=C(N)NCCC[C@H](NC(=O)[C@H](Cc1ccccc1)NC(=O)[C@@H](Cc1ccccc1)NC(=O)[C@H](CO)NC(=O)[C@H](Cc1ccccc1)NC(=O)[C@H]1CCCN1C(=O)[C@H](CC(N)=O)NC(=O)[C@@H]1CCCN1C(=O)[C@@H](N)CCCNC(=N)N)C(=O)O [Compound 3, H-Arg-Pro-Asn-DPro-Phe-Ser-DPhe-Phe-Arg-OH] (H-RPN[dP]FS[dF]FR-OH) |  | 72% and 61% | bradykinin antagonist activity |  |
| N=C(N)NCCC[C@H](NC(=O)[C@H](Cc1ccccc1)NC(=O)[C@@H](Cc1ccccc1)NC(=O)[C@H](CO)NC(=O)[C@H](Cc1ccccc1)NC(=O)CNC(=O)[C@@H]1C[C@@H](O)CN1C(=O)[C@@H]1CCCN1C(=O)[C@@H](N)CCCNC(=N)N)C(=O)O [Compound 1, H-Arg-Pro-Hyp-Gly-Phe-Ser-DPhe-Phe-Arg-OH, reference compound] (H-RP[Hyp]GFS[dF]FR-OH) | high agonist (bradykinin-like) activity |  | bradykinin agonist | Change from Control (%) (Male CF-1 mice; Dose 25 mg/kg, negative value = agonist): -31%; IC₅₀ (Bradykinin receptor; inhibition by 50% of the increase in [Ca²⁺]i induced by 1 X 10⁻⁹M bradykinin): Partial Agonist* |
| N=C(N)NCCC[C@H](NC(=O)[C@H](Cc1ccccc1)NC(=O)[C@@H](Cc1ccccc1)NC(=O)[C@H](CO)NC(=O)[C@H](Cc1ccccc1)NC(=O)CNC(=O)[C@H](CC(N)=O)NC(=O)[C@@H]1CCCN1C(=O)[C@@H](N)CCCNC(=N)N)C(=O)O [Compound 2, H-Arg-Pro-Asn-Gly-Phe-Ser-DPhe-Phe-Arg-OH] (H-RPNGFS[dF]FR-OH) | Compounds 2 and 6 are peptides of the present invention and both exhibit only antagonist (no agonist) activity in this assay. | 57% | bradykinin antagonist activity |  |
| H-Arg-Pro-Aap-Gly-Phe-Ser-DPhe-Phe-Arg-OH [Compound 4] |  | 46% | bradykinin antagonist activity |  |
| N=C(N)NCCC[C@@H](N)C(=O)N[C@@H](CCCNC(=N)N)C(=O)N1CCC[C@H]1C(=O)N[C@@H](CC(N)=O)C(=O)NCC(=O)N[C@@H](Cc1ccccc1)C(=O)N[C@@H](CO)C(=O)N[C@H](Cc1ccccc1)C(=O)N[C@@H](Cc1ccccc1)C(=O)N[C@@H](CCCNC(=N)N)C(=O)O [Compound 6, H-DArg-Arg-Pro-Asn-Gly-Phe-Ser-DPhe-Phe-Arg-OH] (H-[dR]RPNGFS[dF]FR-OH) | Compounds 2 and 6 are peptides of the present invention and both exhibit only antagonist (no agonist) activity in this assay. |  |  |  |

Reference: patent EP0334244A2, “Bradykinin Antagonist Peptides” (THE PROCTER & GAMBLE COMPANY, priority 1988, dated 1989)
